pIC50: −log10 of the molar value.
What was measured:
MMP-2 = target: T1, MMP-2 (Homo sapiens, UniProt P08253); assay: Assay for inhibitory activities on MMPs (fluorogenic peptide substrate): MMP-2; assay type: biochemical; conditions: substrate MOCAc-Pro-Leu-Gly-Leu-A2Pr(DNP)-Ala-Arg-NH2
T1 construct: purchased Calbiochem-Novabiochem International, Inc
T1 sequence (P08253 110-660): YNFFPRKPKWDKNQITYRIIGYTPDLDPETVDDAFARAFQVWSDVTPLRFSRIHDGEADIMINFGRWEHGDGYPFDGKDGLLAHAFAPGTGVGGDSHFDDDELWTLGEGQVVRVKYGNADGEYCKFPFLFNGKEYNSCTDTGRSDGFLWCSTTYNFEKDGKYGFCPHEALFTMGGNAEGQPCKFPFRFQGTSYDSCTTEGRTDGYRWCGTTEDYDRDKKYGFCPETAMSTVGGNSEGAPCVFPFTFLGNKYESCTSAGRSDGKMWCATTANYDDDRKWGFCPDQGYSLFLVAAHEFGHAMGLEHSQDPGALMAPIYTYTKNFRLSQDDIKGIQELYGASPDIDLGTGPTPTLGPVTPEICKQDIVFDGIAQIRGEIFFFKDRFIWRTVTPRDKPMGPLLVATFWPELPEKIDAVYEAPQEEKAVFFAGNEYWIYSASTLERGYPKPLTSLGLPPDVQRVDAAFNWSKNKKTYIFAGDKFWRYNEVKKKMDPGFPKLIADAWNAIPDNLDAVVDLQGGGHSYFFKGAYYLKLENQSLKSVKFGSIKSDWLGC
Method: MMP-2 was purchased from Calbiochem-Novabiochem International, Inc.
(§1) The enzymatic activity on MMPs was analyzed by the method described in “C. Graham Knight, Frances Willenbrock and Gillian Murphy: A novel coumarin-labelled peptide for sensitive continuous assays of the matrix metalloproteinases: FEBS LETT., 296, (1992), 263-266”. The substrate: MOCAc-Pro-Leu-Gly-Leu-A2Pr(DNP)-Ala-Arg-NH2 was purchased from Peptide Institute, Inc., Osaka, Japan. The measurement of the inhibitory activities (IC50) was carried out by the following four methods;
(§2) (A) Reaction with substrate, enzyme (MMPs) and inhibitor
(§3) (B) Reaction with substrate and inhibitor, without enzyme
(§4) (C) Reaction with substrate and enzyme (MMPs), without inhibitor
(§5) (D) Reaction with substrate only
(§6) IC50 values were calculated by using the following formula and each fluorescence values of above four methods (A to D).
(§7) % inhibition={1−(A−B)/(C−D)}×100
(§8) IC50 means the concentration required to inhibit 50% of the enzyme activity.

[1] = tested on: Sprague-Dawley male rats exposed to cigarette smoke; assay: Cigarette smoke exposure in rats, lung mechanics; assay type: in vivo, rat; conditions: 30 mg/kg p.o. twice daily
Method: Sprague-Dawley male rats (390-430 g initial body weight) were exposed daily to smoke from commercial filtered cigarettes (30 cigarettes/rat/day, 5 days/week, for 7 to 8 weeks) with a smoke-generating and whole-body exposure system. The animals received 30 mg/kg p.o. twice daily of compound (B-6), which was suspended with 0.5% methyl cellulose. Vehicle animals received 2 ml/kg of 0.5% methyl cellulose. At 16-24 hr after the last exposure with cigarette smoke, anesthesia was induced with intraperitoneal injection of 40 mg/kg of pentobarbital sodium. Immediately after muscle relaxation with intravenous pancuronium bromide (0.3 mg/rat), animals were mechanically ventilated with a pressure-limited ventilator and were evaluated dynamic compliance. After exsanguination, the lung was attached to a glass syringe via a connector tube and continuously inflated through the airway to a transpulmonary pressure of 30 cmH2O, deflated them to a Ptp of 0 cmH2O, and aspirated them to a Ptp of −20 cmH2O. The change of Ptp and lung volume was monitored and recorded as the deflation pressure-volume (P-V) curve. Static lung compliance defined as the slope of steep portion of the deflation P-V curve was evaluated. Inspiratory capacity (IC) defined as the difference in lung volume between total lung capacity at a Ptp of 25 cmH2O and functional residual capacity at a Ptp of 0 cmH2O was evaluated.
Data are expressed as means ±S.D. Statistical analysis was performed with one-sided Student's t-test. A value of P<0.05 was considered significant.

MMP-1 = target: T2, MMP-1 (Homo sapiens, UniProt P03956); assay: Assay for inhibitory activities on MMPs (fluorogenic peptide substrate): MMP-1; assay type: biochemical; conditions: substrate MOCAc-Pro-Leu-Gly-Leu-A2Pr(DNP)-Ala-Arg-NH2
T2 construct: purchased Yagai
T2 sequence (P03956 100-469): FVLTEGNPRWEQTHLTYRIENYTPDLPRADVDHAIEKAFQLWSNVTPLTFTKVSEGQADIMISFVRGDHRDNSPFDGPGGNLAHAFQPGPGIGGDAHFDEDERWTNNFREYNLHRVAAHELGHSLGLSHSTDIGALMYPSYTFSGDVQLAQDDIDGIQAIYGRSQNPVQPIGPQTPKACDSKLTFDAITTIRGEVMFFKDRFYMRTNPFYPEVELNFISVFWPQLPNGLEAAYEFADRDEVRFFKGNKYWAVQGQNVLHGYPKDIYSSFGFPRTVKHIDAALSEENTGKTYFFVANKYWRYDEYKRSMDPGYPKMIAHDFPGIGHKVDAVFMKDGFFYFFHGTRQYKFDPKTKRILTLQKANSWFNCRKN
Method: MMP-1 was purchased from Yagai.
as §1, §2, §3, §4, §5, §6, §7, §8

MMP-8 catalytic domain = target: T3, MMP-8 catalytic domain (Homo sapiens, UniProt P22894); assay: Assay for inhibitory activities on MMPs (fluorogenic peptide substrate): MMP-8; assay type: biochemical; conditions: substrate MOCAc-Pro-Leu-Gly-Leu-A2Pr(DNP)-Ala-Arg-NH2
T3 construct: catalytic domain (^99Phe˜^262Gly); His-tag; enterokinase digestion-site; made in house; host or cells: Escherichia coli
Text: In regard to MMP-8, catalytic domain (^99Phe˜^262Gly) was amplified with PCR using commercial available Human Bone Marrow cDNA. This was cloned in Escherichia. coli expression vector pTrc99AHE inserted with His-tag sequence and enterokinase digestion-site, induced and expressed by IPTG (Isopropyl-β-D-thiogalactopyranoside) and expressed in a insoluble fraction (Than F. Ho, M. Walid Qoronfleh, Robert C. Wahl, Trica A. Pulvino, Karen J. Vavra, Joe Falvo, Tracey M. Banks, Patricia G. Brake and Richard B. Ciccarelli: Gene expression, purification and characterization of recombinant human neutrophil collagenase. Gene 146, (1994) 297-301, Prepared by the a improved method of this material). Isolation of MMP-8 from insoluble fraction was carried out by dissolving in modifier (6M urea) by a usual method and purification with metal chelate chromatography. And then removing modifier (6M urea) with dialysis and refolding of the enzyme spontaneously gave activated MMP-8.
as §1, §2, §3, §4, §5, §6, §7, §8

MMP-12 catalytic domain = target: T4, MMP-12 catalytic domain (Homo sapiens, UniProt P39900); assay: Assay for inhibitory activities on MMPs (fluorogenic peptide substrate): MMP-12; assay type: biochemical; conditions: substrate MOCAc-Pro-Leu-Gly-Leu-A2Pr(DNP)-Ala-Arg-NH2
T4 construct: catalytic domain(^100Phe˜^263Gly); His-tag; enterokinase digestion-site; made in house; host or cells: Escherichia coli
Method: In regard to MMP-12, catalytic domain(^100Phe˜^263Gly) was amplified with RT-PCR from Human Placenta Total RNA. This was cloned in Escherichia coli expression vector pTrc99AHE inserted with His-tag sequence and enterokinase digestion-site, induced and expressed by IPTG (Isopropyl-β-D-thiogalactopyranoside) and expressed in a insoluble fraction. Isolation of MMP-12 from a insoluble fraction was carried out by dissolving in modifier (6M urea) by a usual method and purification with metal chelate chromatography (Ni Chelateing Sepharose). And then removing modifier (6M urea) with dialysis and refolding of the enzyme spontaneously gave activated MMP-12.
as §1, §2, §3, §4, §5, §6, §7, §8

[2] = cigarette smoke exposure 7 to 8 weeks, means ± S.D., n = 7

T3 sequence (P22894 99-262): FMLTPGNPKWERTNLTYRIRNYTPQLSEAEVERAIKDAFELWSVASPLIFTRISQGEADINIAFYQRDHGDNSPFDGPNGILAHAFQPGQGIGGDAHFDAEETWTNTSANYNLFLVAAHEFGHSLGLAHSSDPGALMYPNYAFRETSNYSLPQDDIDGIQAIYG
T4 sequence (P39900 100-263): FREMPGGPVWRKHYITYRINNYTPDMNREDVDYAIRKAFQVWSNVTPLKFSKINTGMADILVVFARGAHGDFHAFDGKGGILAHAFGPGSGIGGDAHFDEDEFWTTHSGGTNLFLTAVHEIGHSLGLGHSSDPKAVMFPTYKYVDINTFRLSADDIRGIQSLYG

SMILES: C[C@@H](NS(=O)(=O)c1ccc(C#Cc2ccc3ccccc3c2)s1)C(=O)O [Compound B-6]
- pIC50 (MMP-2): 6.46
- effect on increase of dynamic compliance by cigarette smoke exposure (in words) [1]: tended to attenuate the increase
- effect on increase of inspiratory capacity by cigarette smoke exposure (in words) [1]: tended to attenuate the increase
- effect on increase of static lung compliance by cigarette smoke exposure (in words) [1]: significantly reduced the increase
- Inspiratory capacity [1, 2]: 21.76 ± 1.85 mL/kg
- dynamic compliance [1, 2]: 0.96 ± 0.17 ml/cmH2O/kg
- Static lung compliance ([1]; cigarette smoke exposure 7 to 8 weeks, means ± S.D., n = 7, P < 0.05 vs. Cigarette smoke exposure): 2.05 ± 0.25 ml/cmH2O/kg
- pIC50 (MMP-1): < 5.00
- pIC50 (MMP-8 catalytic domain): 5.68
- pIC50 (MMP-12 catalytic domain): 7.64
